Assay results from patent US20200405752A1, “ANTITUMOR AGENT, ANTITUMOR EFFECT ENHANCER, AND ANTITUMOR KIT” (FUJIFILM Corporation, priority 2018, published 2020).

Legend:
[1] = system: human cholangiocarcinoma cell line TFK-1 (spheroid culture); assay: Cell viability (CellTiter Glo) of TFK-1 in spheroid culture in combination with cisplatin; type: cell-based; details: for viability at 0.001 µM / viability at 0.003 µM / viability at 0.01 µM / viability at 0.03 µM / viability at 0.1 µM / viability at 0.3 µM / viability at 1 µM / viability at 3 µM / viability at 10 µM / IC50: Homo sapiens; for viability at 0.001 µM / viability at 0.003 µM / viability at 0.01 µM / viability at 0.03 µM / viability at 0.1 µM / viability at 0.3 µM / viability at 1 µM / viability at 3 µM / viability at 10 µM: 72 h, TFK-1 spheroid, with cisplatin 10 μmol/L, 3 days; for viability at 0.001 µM: test substance 1.0 nM; for viability at 0.003 µM: test substance 3.0 nM; for viability at 0.01 µM: test substance 10.0 nM; for viability at 0.03 µM: test substance 30.0 nM; for viability at 0.1 µM: test substance 100.0 nM; for viability at 0.3 µM: test substance 300.0 nM; for viability at 1 µM: test substance 1000.0 nM; for viability at 3 µM: test substance 3000.0 nM; for viability at 10 µM: test substance 10000.0 nM; for IC50 / CI: TFK-1 spheroid culture; for CI: combination with cisplatin
Excerpt: (§1) On the combinational effect of the embodiment of the invention, the results of evaluation using a combination index (CI) which is a quantitative index of the combinational effect are shown. The CI can be calculated by the following equation according to Cancer Research, 2010, Vol. 70, pp. 440 to 446.
(§2) That is, in a case where the drugs to be used in combination are drug 1 and drug 2, the CI at a certain drug concentration is
(§3) CI={(cell viability in case of using drug 1 and drug 2 in combination)/100}/{[(cell viability in case of using drug 1)/100]×[(cell viability in case of using drug 2)/100]}
Evaluation of Antitumor Activity Against Cholangiocarcinoma Cell Line TFK-1 by Combined Use of Cisplatin in Spheroid Culture
(§4) Gemcitabine, cisplatin, and methanesulfonate of Compound A were used as test substances.
(§5) Gemcitabine hydrochloride (manufactured by Plantex Co., Ltd.) dissolved in dimethyl sulfoxide (DMSO) was used as gemcitabine. Cisplatin (Cat. #039-20091, manufactured by Wako Pure Chemical Industries, Ltd.) dissolved in DMSO was used as cisplatin.
Human cholangiocarcinoma cell line TFK-1 cells were subcultured in RPMI-1640 medium supplemented with 10% serum (Cat. #10437-028, manufactured by Thermo Fisher Scientific Inc.). During this test, all cell cultures were carried out in a CO2 incubator (set to 37° C. and 5% CO2, saturated with water vapor). The culture was diluted with 10% serum-supplemented medium to a cell density of 5000 cells/well/100 μL, and seeded on an Ultra-Low Attachment 96-well plate (Cat. #7007, manufactured by Corning Incorporated). The cells were cultured for 4 days to form spheroids.
The methanesulfonate of Compound A and gemcitabine were dissolved in DMSO to prepare 10 mmol/L DMSO solutions thereof. The thus-prepared DMSO solutions were diluted sequentially with DMSO to prepare DMSO solutions having a final treatment concentration of 1000-fold dilution. Cisplatin was dissolved in DMSO to prepare a 100 mmol/L DMSO solution. The thus-prepared DMSO solution of cisplatin was diluted with DMSO to prepare a DMSO solution having a final treatment concentration of 5000-fold dilution. Further, the DMSO solution of cisplatin was diluted with 10% serum-supplemented medium to prepare a cisplatin-containing medium having a final treatment concentration of 10-fold dilution. The DMSO diluted solutions of Compound A and gemcitabine were diluted with the cisplatin-containing medium to prepare treatment liquids having a final treatment concentration of 10-fold dilution. Compound A and gemcitabine were used with a maximum concentration of 10 μmol/L at a common ratio of 1/3 and 9 concentrations in combination with cisplatin (10 μmol/L).
(§6) 10 μL of Compound A or gemcitabine diluted with the cisplatin-containing medium was added to each well. In addition, a group in which only a solvent containing no drug was added to wells in which cells were seeded (positive control), and a group in which only a solvent containing no drug was added to wells containing only a medium (negative control) were provided. All groups were set to n=3 well.
(§7) The cells were cultured for 3 days after the addition of the drug, and the cell viability was evaluated using a CellTiter Glo (registered trademark) Reagent (Cat. #G7570, manufactured by Promega Corporation) with the intracellular ATP level as an index. The concentration that inhibits cell viability by 50% (IC50 value) was calculated using XLFit software Ver.3 (registered trademark, manufactured by CTC Laboratory Systems Corporation).
(§8) The cell viability of each well was determined with the luminescence signal level of the negative control being 0% cell viability and the luminescence signal level of the positive control being 100% cell viability. The average value and standard deviation of the cell viability of each treatment group were calculated to prepare Table 9.

[2] = system: human cholangiocarcinoma-derived cell line HuCC-T1; assay: Cell viability (CellTiter Glo) of HuCC-T1 in combination with cisplatin; type: cell-based; details: for viability at 0.0015 µM / viability at 0.0046 µM / viability at 0.0137 µM / viability at 0.0412 µM / viability at 0.1235 µM / viability at 0.3704 µM / viability at 1.1111 µM / viability at 3.3333 µM / viability at 10 µM / IC50: Homo sapiens; for viability at 0.0015 µM / viability at 0.0046 µM / viability at 0.0137 µM / viability at 0.0412 µM / viability at 0.1235 µM / viability at 0.3704 µM / viability at 1.1111 µM / viability at 3.3333 µM / viability at 10 µM: HuCCT-1, 72 h, with cisplatin 10 μmol/L, 3 days; for viability at 0.0015 µM: test substance 1.5 nM; for viability at 0.0046 µM: test substance 4.6 nM; for viability at 0.0137 µM: test substance 13.7 nM; for viability at 0.0412 µM: test substance 41.2 nM; for viability at 0.1235 µM: test substance 123.5 nM; for viability at 0.3704 µM: test substance 370.4 nM; for viability at 1.1111 µM: test substance 1111.1 nM; for viability at 3.3333 µM: test substance 3333.3 nM; for viability at 10 µM: test substance 10000.0 nM; for IC50: HuCCT-1, used in combination with cisplatin (10 μmol/L, Table 8); for CI: combination with cisplatin
Excerpt: as §1, §2, §3
Evaluation of antitumor activity against human cholangiocarcinoma-derived cell line HuCC-T1 in combination with cisplatin
Furthermore, the antitumor activity against the human cholangiocarcinoma-derived cell line HuCC-T1 in combination with cisplatin was evaluated in the same manner as in Test Example 1.
as §4
as §5, with “DMSO” for “dimethyl sulfoxide (DMSO)”, “serum-free RPMI-1640 medium (Cat. #11875-119, manufactured by Thermo Fisher Scientific Inc.)” for “DMSO”
Human cholangiocarcinoma cell line HuCC-T1 cells were subcultured in RPMI-1640 medium supplemented with 10% serum (Cat. #10437-028, manufactured by Thermo Fisher Scientific Inc.). During this test, all cell cultures were carried out in a CO2 incubator (set to 37° C. and 5% CO2, saturated with water vapor). The culture was diluted with a 10% serum-supplemented medium to a cell density of 15000 cells/well/100 μL and the cells were seeded on a 96-well plate. On the next day, the culture supernatant of each well was discarded, followed by washing twice with 150 μL of serum-free medium, and 100 μL of serum-free medium was added thereto, followed by culturing for 3 days.
The methanesulfonate of Compound A and gemcitabine were dissolved in DMSO to prepare […] DMSO solutions thereof. The thus-prepared DMSO solutions were diluted sequentially with DMSO to prepare DMSO solutions having a final treatment concentration of 1000-fold dilution. Cisplatin was dissolved in serum-free medium to prepare a cisplatin solution 60 μmol/L. The DMSO diluted solutions of Compound A and gemcitabine were diluted with the cisplatin solution (60 μmol/L) to prepare treatment liquids having a final treatment concentration of 6-fold dilution. Compound A and gemcitabine were used with a maximum concentration of 10 μmol/L at a common ratio of 1/3 and 9 concentrations in combination with cisplatin.
as §6, with “20” for “10”, “cisplatin solution (60 μmol/L)” for “cisplatin-containing medium”
as §7
as §8, with “8.” for “9.”

Compound | viability at 0.001 µM [1] [%] | viability at 0.003 µM [1] [%] | viability at 0.01 µM [1] [%] | viability at 0.03 µM [1] [%] | viability at 0.1 µM [1] [%] | viability at 0.3 µM [1] [%] | viability at 1 µM [1] [%] | viability at 3 µM [1] [%] | viability at 10 µM [1] [%] | CI [1] | viability at 0.0015 µM [2] [%] | viability at 0.0046 µM [2] [%] | viability at 0.0137 µM [2] [%] | viability at 0.0412 µM [2] [%] | viability at 0.1235 µM [2] [%] | viability at 0.3704 µM [2] [%] | viability at 1.1111 µM [2] [%] | viability at 3.3333 µM [2] [%] | viability at 10 µM [2] [%] | IC50 [2] [nM] | also measured
Nc1ccn([C@@H]2S[C@H](CO)[C@@H](O)[C@@H]2F)c(=O)n1 [Compound A, 1-(2-deoxy-2-fluoro-4-thio-β-D-arabinofuranosyl)cytosine] | 97 | 101 | 96 | 91 | 90 | 65 | 23 | 14 | 9 | 0.13 | 117 | 114 | 110 | 96 | 66 | 44 | 40 | 36 | 34 | 261 | IC50 ([1]; in combination with cisplatin (5 μmol/L)): 469 nM; CI [2]: 0.34
Nc1ccn([C@@H]2O[C@H](CO)[C@@H](O)C2(F)F)c(=O)n1 [Gemcitabine] | 97 | 97 | 97 | 89 | 90 | 83 | 83 | 77 | 66 | 0.78 | 114 | 113 | 116 | 113 | 116 | 113 | 103 | 83 | 56 | ≥ 10000 | IC50 ([1]; in combination with cisplatin (10 μmol/L)): ≥ 10000 nM; CI [2]: 0.90
